{"source": "patent US20260226077A1", "about": "“TYPE II TOPOISOMERASE INHIBITORS AND METHODS OF MAKING AND USING THEREOF” (Ohio State Innovation Foundation, priority 2023, published 2026)", "key": {"S. aureus 29213": {"test_system": "S. aureus 29213", "assay": "MIC against S. aureus 29213", "format": "cell-based", "conditions": "Staphylococcus aureus"}, "Neisseria gonorrhoeae": {"test_system": "Neisseria gonorrhoeae", "assay": "MIC50/90 against Neisseria gonorrhoeae", "format": "cell-based"}, "Enterococcus spp.": {"test_system": "Enterococcus spp.", "assay": "MIC50/90 against Enterococcus spp.", "format": "cell-based", "conditions": "n = 10 (147), n = 20 (others)"}, "Escherichia coli 25922": {"test_system": "Escherichia coli 25922", "assay": "MIC against Escherichia coli 25922", "format": "cell-based"}, "Dog microsomal stability": {"assay": "Dog microsomal stability", "format": "in vitro ADME", "conditions": "microsomes, read-out: Dog microsom. t1/2"}, "[1]": {"test_system": "Burkholderia pseudomallei", "assay": "microbe, parasite or virus in culture", "format": "cell-based"}, "Mycobacterium avium": {"test_system": "Mycobacterium avium", "assay": "MIC50 against Mycobacterium avium", "format": "cell-based", "conditions": "n = 4"}, "In vitro micronucleus": {"assay": "In vitro micronucleus", "format": "cell-based"}, "[2]": {"test_system": "Pseudomonas aeruginosa 27853", "assay": "MIC against Pseudomonas aeruginosa 27853", "format": "cell-based"}, "physchem": {"assay": "physchem", "conditions": "pH 7.4, aqueous buffer, kinetic from dmso stock, Kinetic solubility at pH 7.4-7.5 (μM)"}, "Streptococcus pneumoniae": {"test_system": "Streptococcus pneumoniae", "assay": "MIC50/90 against Streptococcus pneumoniae", "format": "cell-based"}, "in vitro [3]": {"assay": "in vitro", "conditions": "mouse, plasma"}, "Haemophilus influenzae": {"test_system": "Haemophilus influenzae", "assay": "MIC50/90 against Haemophilus influenzae", "format": "cell-based", "conditions": "n = 10"}, "Streptococcus pyogenes": {"test_system": "Streptococcus pyogenes", "assay": "MIC50/90 against Streptococcus pyogenes", "format": "cell-based"}, "in vivo": {"assay": "in vivo", "conditions": "mouse, Mouse Vdss (L)"}, "S. aureus ATCC 29213": {"test_system": "S. aureus ATCC 29213", "format": "cell-based", "conditions": "Using S. aureus ATCC 29213 and four additional strains of S. aureus"}, "in vitro [4]": {"assay": "in vitro", "conditions": "human, hepatocytes"}, "[5]": {"assay": "Permeability: MDCK II A->B", "format": "in vitro ADME", "conditions": "dog"}, "S. aureus CF isolate": {"test_system": "S. aureus CF isolate", "assay": "MIC against S. aureus CF isolate", "format": "cell-based", "conditions": "Staphylococcus aureus"}, "[6]": {"assay": "Mouse microsomal stability", "format": "in vitro ADME", "conditions": "microsomes, read-out: Mouse microsom. t1/2"}, "[7]": {"test_system": "Staphylococcus epidermidis", "assay": "MIC50/90 against Staphylococcus epidermidis", "format": "cell-based", "conditions": "n = 10"}, "FQ-R MRSA": {"test_system": "FQ-R MRSA", "assay": "MIC against FQ-R MRSA isolates", "format": "cell-based, Staphylococcus aureus", "conditions": "Staphylococcus aureus, MRSA; n = 15 (147), n = 25 (284, 319, gepotidacin)"}, "S. aureus USA300": {"test_system": "S. aureus USA300", "assay": "MIC against S. aureus USA300", "format": "cell-based", "conditions": "Staphylococcus aureus"}, "Bacillus anthracis": {"test_system": "Bacillus anthracis", "assay": "microbe, parasite or virus in culture", "format": "cell-based"}, "Streptococcus agalactiae": {"test_system": "Streptococcus agalactiae", "assay": "MIC50/90 against Streptococcus agalactiae", "format": "cell-based"}, "in vitro [8]": {"assay": "in vitro", "conditions": "human, plasma"}, "[9]": {"assay": "Permeability: CACO-2 A->B", "format": "in vitro ADME", "conditions": "human, Caco-2"}, "[10]": {"test_system": "CYP 1A, 2B6, 2C8, 2C9, 2C19, 2D6, 3A", "assay": "CYP inhibition at 10 μM", "format": "in vitro ADME"}, "Staphylococcus aureus": {"test_system": "Staphylococcus aureus", "assay": "MIC50/90 against Staphylococcus aureus isolates", "format": "cell-based", "conditions": "n = 30 (147), n = 100 (284, 319, gepotidacin)"}, "K562": {"test_system": "K562", "assay": "K562 cytotoxicity", "format": "cell-based", "conditions": "Homo sapiens"}, "Yersinia pestis": {"test_system": "Yersinia pestis", "assay": "microbe, parasite or virus in culture", "format": "cell-based"}, "[11]": {"assay": "not given", "remark": "listed apart in the source"}, "[12]": {"assay": "not given", "remark": "listed apart in the source"}, "Francisella tularensis": {"test_system": "Francisella tularensis", "assay": "microbe, parasite or virus in culture", "format": "cell-based"}, "Rat microsomal stability": {"assay": "Rat microsomal stability", "format": "in vitro ADME", "conditions": "microsomes, read-out: Rat microsom. t1/2"}, "[13]": {"conditions": "in vivo"}, "TopoIV/gyrase": {"test_system": "TopoIV/gyrase", "assay": "TopoIV/gyrase inhibition ratio", "format": "biochemical"}, "[14]": {"test_system": "Acinetobacter baumannii 19606", "assay": "MIC against Acinetobacter baumannii 19606", "format": "cell-based"}, "[15]": {"conditions": "Neisseria gonorrhoeae, n = 17 (284, gepotidacin), n = 110 (147)"}, "[16]": {"conditions": "284: as free base in immunocompetent mice, 147: no footnote"}, "[17]": {"conditions": "as mesylate salt in neutropenic mice"}}, "note": "Marks after values point to notes of the source that are not given here.", "data": [{"smiles": "COc1ccc2ncc(F)c(C[C@H](O)[C@H]3OC[C@H](NCc4cnc5c(n4)NC(=O)CO5)CO3)c2n1", "note": "[Compound 284, 6-(((2-((S)-2-(3-fluoro-6-methoxy-1,5-naphthyridin-4-yl)-1-hydroxyethyl)-trans-1,3-dioxan-5-yl)amino)methyl)-2H-pyrazino[2,3-b][1,4]oxazin-3(4H)-one]", "values": [{"measurement": "MIC", "setting": "S. aureus 29213", "result": "0.125 to 0.25", "unit": "µg/mL"}, {"measurement": "MIC50", "setting": "Neisseria gonorrhoeae; Neisseria gonorrhoeae, n = 100", "result": 0.5, "unit": "µg/mL"}, {"measurement": "MIC50", "setting": "Neisseria gonorrhoeae; [15]", "result": 1, "unit": "µg/mL"}, {"measurement": "MIC90", "setting": "Neisseria gonorrhoeae; [15]", "result": 2, "unit": "µg/mL"}, {"measurement": "Neisseria gonorrhoeae MIC90", "setting": "Neisseria gonorrhoeae; n = 100", "result": 2, "unit": "µg/mL"}, {"measurement": "MIC50", "setting": "Enterococcus spp.", "result": 1, "unit": "µg/mL"}, {"measurement": "MIC90", "setting": "Enterococcus spp.", "result": 2, "unit": "µg/mL"}, {"measurement": "Escherichia coli 25922 MIC", "setting": "Escherichia coli 25922", "result": 16, "unit": "µg/mL"}, {"measurement": "half-life", "setting": "Dog microsomal stability", "result": "> 2", "unit": "h"}, {"measurement": "MIC50", "setting": "[1]; read-out: Burkholderia pseudomallei MIC50 (μg/mL)", "result": 32, "unit": "µg/mL"}, {"measurement": "MIC90", "setting": "[1]; read-out: Burkholderia pseudomallei MIC90 (μg/mL)", "result": 64, "unit": "µg/mL"}, {"measurement": "MIC50", "setting": "Mycobacterium avium", "result": 4, "unit": "µg/mL"}, {"measurement": "In vitro micronucleus", "setting": "In vitro micronucleus", "result": "Pos. at high"}, {"measurement": "MIC", "setting": "[2]", "result": 64, "unit": "µg/mL"}, {"measurement": "solubility kinetic", "setting": "physchem", "result": 118, "unit": "µM"}, {"measurement": "MIC50", "setting": "Streptococcus pneumoniae; n = 5 (147), n = 10 (others)", "result": 0.5, "unit": "µg/mL"}, {"measurement": "MIC90", "setting": "Streptococcus pneumoniae; n = 10", "result": 1, "unit": "µg/mL"}, {"measurement": "half-life", "setting": "in vitro [3]", "result": "> 2", "unit": "h"}, {"measurement": "MIC50", "setting": "Haemophilus influenzae", "result": 4, "unit": "µg/mL"}, {"measurement": "MIC90", "setting": "Haemophilus influenzae", "result": 8, "unit": "µg/mL"}, {"measurement": "MIC50", "setting": "Streptococcus pyogenes; n = 5 (147), n = 10 (others)", "result": 0.5, "unit": "µg/mL"}, {"measurement": "MIC90", "setting": "Streptococcus pyogenes; n = 10", "result": 2, "unit": "µg/mL"}, {"measurement": "Vd", "setting": "in vivo", "result": 0.36, "unit": "L"}, {"measurement": "Resistance freq. (at 8X MIC)", "setting": "S. aureus ATCC 29213", "result": "<9.62 × 10^−10**"}, {"measurement": "half-life", "setting": "in vitro [4]", "result": "> 4", "unit": "h"}, {"measurement": "Papp A→B", "setting": "[5]", "result": 0.74, "unit": "×10⁻⁶ cm/s"}, {"measurement": "MIC", "setting": "S. aureus CF isolate", "result": "0.125 to 0.25", "unit": "µg/mL"}, {"measurement": "half-life", "setting": "[6]", "result": "> 2", "unit": "h"}, {"measurement": "MIC50", "setting": "[7]", "result": 0.12, "unit": "µg/mL"}, {"measurement": "MIC90", "setting": "[7]", "result": 0.25, "unit": "µg/mL"}, {"measurement": "MIC90", "setting": "FQ-R MRSA", "result": 0.12, "unit": "µg/mL"}, {"measurement": "MIC", "setting": "S. aureus USA300", "result": "0.125 to 0.25", "unit": "µg/mL"}, {"measurement": "Mouse plasma protein binding (% unbound)", "result": 31, "unit": "% unbound"}, {"measurement": "MIC50", "setting": "Bacillus anthracis; read-out: Bacillus anthracis MIC50 (μg/mL)", "result": 0.06, "unit": "µg/mL"}, {"measurement": "MIC90", "setting": "Bacillus anthracis; read-out: Bacillus anthracis MIC90 (μg/mL)", "result": 0.25, "unit": "µg/mL"}, {"measurement": "MIC50", "setting": "Streptococcus agalactiae; Streptococcus agalactiae, n = 5 (147), n = 10 (others)", "result": 4, "unit": "µg/mL"}, {"measurement": "Streptococcus agalactiae MIC90", "setting": "Streptococcus agalactiae; n = 10", "result": 16, "unit": "µg/mL"}, {"measurement": "half-life", "setting": "in vitro [8]", "result": "> 2", "unit": "h"}, {"measurement": "Mouse PK AUClast, unbound (μg*h/mL) after 50 mg/kg oral dose", "setting": "Mouse pharmacokinetics; [16]", "result": "5** μg*h/mL"}, {"measurement": "Mouse PK AUClast, unbound (μg*h/mL) after 50 mg/kg oral dose", "setting": "Mouse pharmacokinetics; [17]", "result": "12*** μg*h/mL"}, {"measurement": "Mouse Clunbound (mL/min/kg)", "setting": "Mouse pharmacokinetics; [16]", "result": "15*** mL/min/kg"}, {"measurement": "Mouse Clunbound (mL/min/kg)", "setting": "Mouse pharmacokinetics; [17]", "result": "45**** mL/min/kg"}, {"measurement": "Papp A→B", "setting": "[9]", "result": 1.5, "unit": "×10⁻⁶ cm/s"}, {"measurement": "CYP inhibition at 10 μM (1A, 2B6, 2C8, 2C9, 2C19, 2D6, 3A)", "setting": "[10]", "result": "No issues"}, {"measurement": "MIC50", "setting": "Staphylococcus aureus", "result": 0.12, "unit": "µg/mL"}, {"measurement": "MIC90", "setting": "Staphylococcus aureus", "result": 0.25, "unit": "µg/mL"}, {"measurement": "IC50", "setting": "K562", "result": "> 200", "unit": "µM"}, {"measurement": "MIC50", "setting": "Yersinia pestis; read-out: Yersinia pestis MIC50 (μg/mL)", "result": 2, "unit": "µg/mL"}, {"measurement": "MIC90", "setting": "Yersinia pestis; read-out: Yersinia pestis MIC90 (μg/mL)", "result": 8, "unit": "µg/mL"}, {"measurement": "Dog plasma protein binding (% unbound)", "setting": "[11]", "result": 20, "unit": "% unbound"}, {"measurement": "Rat plasma protein binding (% unbound)", "setting": "[12]", "result": 4, "unit": "% unbound"}, {"measurement": "MIC50", "setting": "Francisella tularensis; read-out: Francisella tularensis MIC50 (μg/mL)", "result": 0.5, "unit": "µg/mL"}, {"measurement": "MIC90", "setting": "Francisella tularensis; read-out: Francisella tularensis MIC90 (μg/mL)", "result": 4, "unit": "µg/mL"}, {"measurement": "half-life", "setting": "Rat microsomal stability", "result": "> 2", "unit": "h"}, {"measurement": "Mouse Vdss (L)", "setting": "[13]", "result": "0.53*** L"}, {"measurement": "TopoIV/gyrase ratio", "setting": "TopoIV/gyrase", "result": 0.28}, {"measurement": "MIC", "setting": "[14]", "result": "8 to 16", "unit": "µg/mL"}]}]}
